According to publication PMC8160793, “Potent Antimicrobial and Antibiofilm Activities of Feleucin-K3 Analogs Modified by α-(4-Pentenyl)-Ala against Multidrug-Resistant Bacteria” (Biomolecules, 2021):
In brackets after ≈: the same amount, converted by molar mass. Read-outs that look alike come from different tables or passages of the source. Blank lines part the entries; values can stand above or below the compound they belong to. Square brackets hold non-standard residues; d marks the D form. Ends that are not written are not given here. Peptide text beside a SMILES is read from it. ξ: configuration not given here. ξαMeGly(pent-4-enyl) = C=CCCCC(C)(N)C(=O)O

Columns and labels:
E. coli ATCC 25922 = format: cell-based
Experimental: (§1) The minimum inhibitory concentration (MIC) of the Feleucin-K3 analogs was tested by the broth microdilution method. Sensitive bacteria and drug-resistant bacteria were diluted to 1 × 10^6 CFU/mL, according to the McFarland standards. Bacterial suspension and peptide solutions (8–128 μg/mL) were incubated at 37 °C for 18 h. The minimum concentration without obvious bacterial growth was the MIC of the peptides. The stability of the analogs in a physiological salt environment was also investigated. In brief, salt powder (450-mM NaCl) was dissolved in deionized water, and the following investigational steps were the same as those described before. The above steps were repeated several times, until the same value was obtained three times.

MRSA 113 = format: cell-based, Staphylococcus aureus; conditions: 113, 18 h
Experimental: as §1

MRSA 23 = format: cell-based, Staphylococcus aureus; conditions: 23, 18 h
Experimental: as §1

MRSA 48 = format: cell-based, Staphylococcus aureus; conditions: 48, 18 h
Experimental: as §1

MRSA 51 = format: cell-based, Staphylococcus aureus; conditions: 51, 18 h
Experimental: as §1

MRSA 52 = format: cell-based, Staphylococcus aureus; conditions: 52, 18 h
Experimental: as §1

MRSA 54 = format: cell-based, Staphylococcus aureus; conditions: 54, 18 h
Experimental: as §1

MRSA 71 = format: cell-based, Staphylococcus aureus; conditions: 71, 18 h
Experimental: as §1

MRSA 74 = format: cell-based, Staphylococcus aureus; conditions: 74, 18 h
Experimental: as §1

MRSA 75 = format: cell-based, Staphylococcus aureus; conditions: 75, 18 h
Experimental: as §1

MRSA 936 = format: cell-based, Staphylococcus aureus; conditions: 936, 18 h
Experimental: as §1

MRSA ATCC 33591 = format: cell-based, Staphylococcus aureus; conditions: ATCC 33591, 18 h
Experimental: as §1

S. aureus 725 = format: cell-based, Staphylococcus aureus; conditions: 725, 18 h
Experimental: as §1

S. aureus 794 = format: cell-based, Staphylococcus aureus; conditions: 794, 18 h
Experimental: as §1

S. aureus ATCC 25923 = format: cell-based, Staphylococcus aureus
Experimental: as §1

P. aeruginosa ATCC 27853 = format: cell-based, Pseudomonas aeruginosa
Experimental: as §1

A. baumannii 51243 = format: cell-based, Acinetobacter baumannii; conditions: 51243, 18 h
Experimental: as §1

A. baumannii 5444 = format: cell-based, Acinetobacter baumannii; conditions: 5444, 18 h
Experimental: as §1

A. baumannii 822144 = format: cell-based, Acinetobacter baumannii; conditions: 822144, 18 h
Experimental: as §1

A. baumannii 8309 = format: cell-based, Acinetobacter baumannii; conditions: 8309, 18 h
Experimental: as §1

A. baumannii 91105 = format: cell-based, Acinetobacter baumannii; conditions: 91105, 18 h
Experimental: as §1

A. baumannii 91152 = format: cell-based, Acinetobacter baumannii; conditions: 91152, 18 h
Experimental: as §1

A. baumannii 91199 = format: cell-based, Acinetobacter baumannii; conditions: 91199, 18 h
Experimental: as §1

A. baumannii 91810 = format: cell-based, Acinetobacter baumannii; conditions: 91810, 18 h
Experimental: as §1

A. baumannii 91869 = format: cell-based, Acinetobacter baumannii; conditions: 91869, 18 h
Experimental: as §1

A. baumannii 91944 = format: cell-based, Acinetobacter baumannii; conditions: 91944, 18 h
Experimental: as §1

A. baumannii 9234 = format: cell-based, Acinetobacter baumannii; conditions: 9234, 18 h
Experimental: as §1

A. baumannii 92359 = format: cell-based, Acinetobacter baumannii; conditions: 92359, 18 h
Experimental: as §1

A. baumannii 9236 = format: cell-based, Acinetobacter baumannii; conditions: 9236, 18 h
Experimental: as §1

A. baumannii 9331 = format: cell-based, Acinetobacter baumannii; conditions: 9331, 18 h
Experimental: as §1

A. baumannii 9336 = format: cell-based, Acinetobacter baumannii; conditions: 9336, 18 h
Experimental: as §1

A. baumannii 97830 = format: cell-based, Acinetobacter baumannii; conditions: 97830, 18 h
Experimental: as §1

A. baumannii 98110 = format: cell-based, Acinetobacter baumannii; conditions: 98110, 18 h
Experimental: as §1

A. baumannii 9828 = format: cell-based, Acinetobacter baumannii; conditions: 9828, 18 h
Experimental: as §1

A. baumannii 9840 = format: cell-based, Acinetobacter baumannii; conditions: 9840, 18 h
Experimental: as §1

A. baumannii 9896 = format: cell-based, Acinetobacter baumannii; conditions: 9896, 18 h
Experimental: as §1

A. baumannii ATCC 19606 = format: cell-based, Acinetobacter baumannii
Experimental: as §1

[1] = broth microdilution, 1 × 10^6 CFU/mL, 37 °C, 18 h

MIC, E. coli ATCC 25922 (E. coli ATCC 25922; ATCC 25922, 18 h): 8 µg/mL (≈ 7.01 µM)
MIC, MRSA 113 (MRSA 113): 4 µg/mL (≈ 3.51 µM)
MIC, MRSA 23 (MRSA 23): 4 µg/mL (≈ 3.51 µM)
MIC, MRSA 48 (MRSA 48): 4 µg/mL (≈ 3.51 µM)
MIC, MRSA 51 (MRSA 51): 4 µg/mL (≈ 3.51 µM)
MIC, MRSA 52 (MRSA 52): 8 µg/mL (≈ 7.01 µM)
MIC, MRSA 54 (MRSA 54): 4 µg/mL (≈ 3.51 µM)
MIC, MRSA 71 (MRSA 71): 8 µg/mL (≈ 7.01 µM)
MIC, MRSA 74 (MRSA 74): 4 µg/mL (≈ 3.51 µM)
MIC, MRSA 75 (MRSA 75): 4 µg/mL (≈ 3.51 µM)
MIC, MRSA 936 (MRSA 936): 4 µg/mL (≈ 3.51 µM)
MIC, MRSA ATCC 33591 (MRSA ATCC 33591): 4 µg/mL (≈ 3.51 µM)
MIC, S. aureus 725 (S. aureus 725): 4 µg/mL (≈ 3.51 µM)
MIC, S. aureus 794 (S. aureus 794): 8 µg/mL (≈ 7.01 µM)
MIC, S. aureus ATCC 25923 (S. aureus ATCC 25923; ATCC 25923, 18 h): 4 µg/mL (≈ 3.51 µM)
MIC, P. aeruginosa ATCC 27853 (P. aeruginosa ATCC 27853; ATCC 27853, 18 h): 8 µg/mL (≈ 7.01 µM)
MIC, A. baumannii 51243 (A. baumannii 51243): 4 µg/mL (≈ 3.51 µM)
MIC, A. baumannii 5444 (A. baumannii 5444): 4 µg/mL (≈ 3.51 µM)
MIC, A. baumannii 822144 (A. baumannii 822144): 4 µg/mL (≈ 3.51 µM)
MIC, A. baumannii 8309 (A. baumannii 8309): 4 µg/mL (≈ 3.51 µM)
MIC, A. baumannii 91105 (A. baumannii 91105): 4 µg/mL (≈ 3.51 µM)
MIC, A. baumannii 91152 (A. baumannii 91152): 4 µg/mL (≈ 3.51 µM)
MIC, A. baumannii 91199 (A. baumannii 91199): 4 µg/mL (≈ 3.51 µM)
MIC, A. baumannii 91810 (A. baumannii 91810): 4 µg/mL (≈ 3.51 µM)
MIC, A. baumannii 91869 (A. baumannii 91869): 4 µg/mL (≈ 3.51 µM)
MIC, A. baumannii 91944 (A. baumannii 91944): 4 µg/mL (≈ 3.51 µM)
MIC, A. baumannii 9234 (A. baumannii 9234): 4 µg/mL (≈ 3.51 µM)
MIC, A. baumannii 92359 (A. baumannii 92359): 4 µg/mL (≈ 3.51 µM)
MIC, A. baumannii 9236 (A. baumannii 9236): 4 µg/mL (≈ 3.51 µM)
MIC, A. baumannii 9331 (A. baumannii 9331): 8 µg/mL (≈ 7.01 µM)
MIC, A. baumannii 9336 (A. baumannii 9336): 4 µg/mL (≈ 3.51 µM)
MIC, A. baumannii 97830 (A. baumannii 97830): 4 µg/mL (≈ 3.51 µM)
MIC, A. baumannii 98110 (A. baumannii 98110): 4 µg/mL (≈ 3.51 µM)
MIC, A. baumannii 9828 (A. baumannii 9828): 4 µg/mL (≈ 3.51 µM)
MIC, A. baumannii 9840 (A. baumannii 9840): 4 µg/mL (≈ 3.51 µM)
MIC, A. baumannii 9896 (A. baumannii 9896): 4 µg/mL (≈ 3.51 µM)
MIC, A. baumannii ATCC 19606 (A. baumannii ATCC 19606; ATCC 19606, 18 h): 4 µg/mL (≈ 3.51 µM)
Compound: C=CCCCC(C)(NC(=O)[C@H](CC(C)C)NC(=O)[C@H](CCCCN)NC(=O)[C@H](CC(C)C)NC(=O)[C@@H](N)Cc1ccccc1)C(=O)N[C@@H](CCCCN)C(=O)N[C@@H](CCCCN)C(=O)N[C@@H](CC(C)C)C(=O)N[C@@H](CC(C)C)C(N)=O (stereo partly drawn) [Feleucin-K68] (H-FLKL[ξαMeGly(pent-4-enyl)]KKLL-NH2)

Compound: GIGKFLHSAKKFGKAFVGEIMNS [Magainin 2, reference compound]
MIC, E. coli ATCC 25922 (E. coli ATCC 25922; [1]): 64 µg/mL
MIC, S. aureus ATCC 25923 (S. aureus ATCC 25923; [1]): > 256 µg/mL
MIC, P. aeruginosa ATCC 27853 (P. aeruginosa ATCC 27853; [1]): 256 µg/mL
MIC, A. baumannii ATCC 19606 (A. baumannii ATCC 19606; [1]): 16 µg/mL

MIC, E. coli ATCC 25922 (E. coli ATCC 25922; ATCC 25922, 18 h): >128 µg/mL
MIC, S. aureus ATCC 25923 (S. aureus ATCC 25923; ATCC 25923, 18 h): >128 µg/mL
MIC, P. aeruginosa ATCC 27853 (P. aeruginosa ATCC 27853; ATCC 27853, 18 h): 64 µg/mL
MIC, A. baumannii ATCC 19606 (A. baumannii ATCC 19606; ATCC 19606, 18 h): >128 µg/mL
Compound: LKLLKKLL-NH2 [Feleucin-K63]
